Measured values published in patent US5036077A, “1-(benzylpiperidino)propan-2-ol derivatives, their preparation, their use as antimicrobial agents and the products in which they are present” (Sanofi, priority 1987, dated 1991).
Converted amounts (≈) assume the structure as drawn.

Key:
Type in all cases: cell-based
[1] = test system: Pseudomonas aeruginosa CNCM A22; experiment: Minimum bactericidal concentration, 30 min contact, strain 3; details: Pseudomonas aeruginosa CNCM A22, contact time 30 minutes, solubilizing agent given per product; for MBC: CNCMA22, 0.5 h, read-out: MBC, strain 3
Protocol: (§1) A bacterial inoculum is brought into contact with different dilutions of the test product for a limited time of 30 minutes. When the contact time has ended, an aliquot of the bacterial suspension/product mixture is deposited on the surface of a gelose culture medium containing an agent for neutralizing the antibacterial activity of the product. The bactericidal concentration chosen is the minimum concentration of the product which is necessary to prevent bacterial growth. This concentration is expressed in μg/ml.
3 - Pseudomonas aeruginosa CNCM A22;
(§2) The strains are maintained on Tryptic Soy Agar (TSA) marketed by Difco.
(§3) After 24 hours of culture at 37° C., the microbial growth is harvested with the aid of glass beads and 10 ml of diluent containing 1 g of tryptone and 8.5 g of sodium chloride in 1000 ml of distilled water. The suspension formed is shaken and the percentage transmission of light at 620 nm is measured on a spectrophotometer:
(§4) The bacterial inoculum corresponds to a 1/20 dilution of this bacterial suspension.
(§5) Plates containing cups receive different dilutions of the test product. These dilutions of the test product are brought into contact with the different bacterial suspensions using a multiple-site inoculator. After a contact time of 30 minutes, aliquots are transferred by means of this inoculator to the surface of a gelose medium (TSA) placed in petri dishes and containing an agent for neutralizing the activity, namely 20 g of lubrol W, 2.5 g of Tween 80, 2.5 g of sodium thiosulfate and 1% of egg yolk in 1000 ml of TSA (Difco). A reference for the efficacy of the neutralizing agent is prepared for each test product by depositing an aliquot of the dilution of the test product on the surface of the culture medium. After drying, the corresponding inoculum is deposited in the same place. A reference inoculum is prepared on a gelose medium with and without neutralizing agent. The results are read off after 48 hours of incubation at 37° C.
(§6) They indicate the minimum bactericidal concentrations (MBC) for strains 1, 2, 3 and 4 and the minimum fungicidal concentrations (MFC) for strain 5.

[2] = test system: Escherichia coli CNCM 54127; experiment: Minimum bactericidal concentration, 30 min contact, strain 4; details: Escherichia coli CNCM 54127, contact time 30 minutes, solubilizing agent given per product; for MBC: CNCM54127, 0.5 h, read-out: MBC, strain 4
Protocol: as §1
4 - Escherichia coli CNCM 54127.
as §2, §3, §4, §5, §6

[3] = test system: Candida albicans CNCM 1180; experiment: Minimum fungicidal concentration, strain 5; details: Candida albicans CNCM 1180, contact time 30 minutes, solubilizing agent given per product; for MFC: CNCM1180, 0.5 h, read-out: MFC, strain 5
Protocol: as §1, §5
The antifungal activity of the products according to the invention was also determined using the method described above. The representative strain of yeast selected for the study was Candida albicans CNCM 1180 (strain 5).
This is maintained on a gelose medium of Sabouraud Dextrose Agar, marketed by Difco. The technique is identical to that described for studying the antibacterial activity. After 48 hours of culture at 37° C., the microbial growth is harvested with the aid of glass beads and 5 ml of diluent containing 1 g of tryptone and 8.5 g of sodium chloride in 1000 ml of distilled water; a further 5 ml of the diluent are then added. In a spectrophotometer, this suspension gives a 2 to 3% transmission of light at 620 nm. The inoculum corresponds to a 1/10 dilution of this microbial suspension. A 1/100 dilution of this suspension, observed between a microscope slide and cover slip through a lens of magnification 40, should show 10 cells per field, which corresponds to 1 000 000 yeasts per ml.
as §6

[4] = test system: Streptococcus faecalis CNCM 5855; experiment: Minimum bactericidal concentration, 30 min contact, strain 2; details: Streptococcus faecalis CNCM 5855, contact time 30 minutes, solubilizing agent given per product; for MBC: Enterococcus faecalis, CNCM5855, 0.5 h, read-out: MBC, strain 2
Protocol: as §1
2 - Streptococcus faecalis CNCM 5855;
as §2, §3, §4, §5, §6

[5] = test system: Staphylococcus aureus CNCM 53154; experiment: Minimum bactericidal concentration, 30 min contact, strain 1; details: Staphylococcus aureus CNCM 53154, contact time 30 minutes, solubilizing agent (water, TEG or acetone) given per product; for MBC: CNCM53154, 0.5 h, read-out: MBC, strain 1
Protocol: as §1
1 - Staphylococcus aureus CNCM 53154;
as §2, §3, §4, §5, §6

| Structure (SMILES) | MBC [1] | MBC [2] | MFC [3] | MBC [4] | MBC [5] | MFC, strain 5 [3] | MBC, strain 2 [4] | MBC, strain 1 [5] | MBC, strain 3 [1] | MBC, strain 4 [2] |
| --- | --- | --- | --- | --- | --- | --- | --- | --- | --- | --- |
| OC(COc1ccc(F)cc1F)CN1CCC(Cc2ccccc2)CC1 (racemic) [SR 44971 A] | 1000 mg/L (≈ 2770 µM) | 1000 mg/L (≈ 2770 µM) | 1000 mg/L (≈ 2770 µM) | 1000 mg/L (≈ 2770 µM) | 1000 mg/L (≈ 2770 µM) | – | – | – | – | – |
| OC(COc1cccc2ccccc12)CN1CCC(Cc2ccc(Cl)cc2)CC1 (racemic) [SR 44999 A] | ≤ 10 mg/L | ≤ 10 mg/L | ≤ 10 mg/L | ≤ 10 mg/L | 50 mg/L (≈ 122 µM) | – | – | – | – | – |
| OC(CSc1ccc(Br)cc1)CN1CCC(Cc2ccc(Cl)cc2)CC1 (racemic) [SR 45076 A] | 50 mg/L (≈ 110 µM) | 10 mg/L (≈ 22 µM) | 50 mg/L (≈ 110 µM) | 10 mg/L (≈ 22 µM) | 50 mg/L (≈ 110 µM) | – | – | – | – | – |
| OC(CSc1ccc(Cl)c(Cl)c1)CN1CCC(Cc2ccc(Cl)cc2)CC1 (racemic) [SR 45077 A] | 50 mg/L (≈ 112 µM) | 10 mg/L (≈ 22.5 µM) | 50 mg/L (≈ 112 µM) | 10 mg/L (≈ 22.5 µM) | 50 mg/L (≈ 112 µM) | – | – | – | – | – |
| OC(CSc1cccc(Br)c1)CN1CCC(Cc2ccccc2)CC1 (racemic) [SR 45204 A] | 50 mg/L (≈ 119 µM) | 50 mg/L (≈ 119 µM) | > 200 mg/L | > 200 mg/L | > 200 mg/L | – | – | – | – | – |
| OC(COc1ccc(Cl)c(Cl)c1)CN1CCC(Cc2ccccc2)CC1 (racemic) [SR 45551 A] | 50 mg/L (≈ 127 µM) | 50 mg/L (≈ 127 µM) | > 200 mg/L | 50 mg/L (≈ 127 µM) | > 200 mg/L | – | – | – | – | – |
| OC(COc1ccc(Cl)c(Cl)c1)CN1CCC(Cc2ccc(Cl)cc2)CC1 (racemic) [SR 45553 A] | 50 mg/L (≈ 117 µM) | 10 mg/L (≈ 23.3 µM) | 50 mg/L (≈ 117 µM) | 50 mg/L (≈ 117 µM) | 10 mg/L (≈ 23.3 µM) | – | – | – | – | – |
| OC(CSc1ccc(Cl)c(Cl)c1)CN1CCCC(Cc2ccccc2)C1 (single isomer, unassigned) [SR 45236 A] | 50 mg/L (≈ 122 µM) | 50 mg/L (≈ 122 µM) | > 200 mg/L | 50 mg/L (≈ 122 µM) | > 200 mg/L | – | – | – | – | – |
| OC(CSc1ccc(Cl)c(Cl)c1)CN1CCCC(Cc2ccccc2)C1 (single isomer, unassigned) [SR 45237 A] | – | – | – | – | – | > 200 mg/L | 50 mg/L (≈ 122 µM) | > 200 mg/L | – | – |
| Cl.OC(COc1ccc(Cl)cc1Cl)CN1CCC(Cc2ccccc2)CC1 (stereo not drawn) [SR 44333 A, 1-(4-Benzylpiperidino)-3-(2,4-dichlorophenoxy)propan-2-ol hydrochloride] | 50 mg/L | 50 mg/L | – | 100 mg/L | 100 mg/L | – | – | – | – | – |
| Cl.OC(CSc1ccc(Br)cc1)CN1CCC(Cc2ccccc2)CC1 (stereo not drawn) [SR 44444 A, 1-(4-Benzylpiperidino)-3-(4-bromophenylthio)propan-2-ol hydrochloride] | 50 mg/L | 50 mg/L | – | 50 mg/L | 50 mg/L | – | – | – | – | – |
| Cl.OC(COc1ccc2ccccc2c1Br)CN1CCC(Cc2ccccc2)CC1 (stereo not drawn) [SR 44716 A, 1-(4-Benzylpiperidino)-3-(1-bromonaphth-2-yloxy)propan-2-ol hydrochloride] | 10 mg/L | 10 mg/L | 50 mg/L | 50 mg/L | 50 mg/L | – | – | – | – | – |
| Cl.OC(COc1ccc(Cl)cc1Cc1ccccc1)CN1CCC(Cc2ccccc2)CC1 (stereo not drawn) [SR 44719 A, 3-(2-Benzyl-4-chlorophenoxy)-1-(4-benzylpiperidino)propan-2-ol hydrochloride] | 10 mg/L | 5 mg/L | 50 mg/L | 10 mg/L | 10 mg/L | – | – | – | – | – |
| CS(=O)(=O)O.OC(COc1ccc(Cl)cc1Cl)CN1CCCC(Cc2ccccc2)C1 (stereo not drawn) [SR 44957 A, 1-(3-Benzylpiperidino)-3-(2,4-dichlorophenoxy)propan-2-ol methanesulfonate] | – | – | – | – | – | 50 mg/L | ≤ 10 mg/L | 50 mg/L | ≤ 10 mg/L | ≤ 10 mg/L |
